Laboratory results taken from article PMC10819765, “The biochemically defined super relaxed state of myosin—A paradox” (The Journal of Biological Chemistry, 2023).

Target: T1, porcine cardiac ventricle myosin (pc-HMM; beta-cardiac myosin heavy chain) (Sus scrofa, UniProt P79293)
T1 construct: gene MYH7; chymotryptic heavy meromyosin (pc-HMM); also S1 (pc-S1); with myosin light chains (RLC, essential light chain)
Assay: stopped-flow FRET (Trp to mant) displacement and multiple-turnover assay; kcat […] s^-1
Format: biochemical

T1 sequence (P79293 whole entry): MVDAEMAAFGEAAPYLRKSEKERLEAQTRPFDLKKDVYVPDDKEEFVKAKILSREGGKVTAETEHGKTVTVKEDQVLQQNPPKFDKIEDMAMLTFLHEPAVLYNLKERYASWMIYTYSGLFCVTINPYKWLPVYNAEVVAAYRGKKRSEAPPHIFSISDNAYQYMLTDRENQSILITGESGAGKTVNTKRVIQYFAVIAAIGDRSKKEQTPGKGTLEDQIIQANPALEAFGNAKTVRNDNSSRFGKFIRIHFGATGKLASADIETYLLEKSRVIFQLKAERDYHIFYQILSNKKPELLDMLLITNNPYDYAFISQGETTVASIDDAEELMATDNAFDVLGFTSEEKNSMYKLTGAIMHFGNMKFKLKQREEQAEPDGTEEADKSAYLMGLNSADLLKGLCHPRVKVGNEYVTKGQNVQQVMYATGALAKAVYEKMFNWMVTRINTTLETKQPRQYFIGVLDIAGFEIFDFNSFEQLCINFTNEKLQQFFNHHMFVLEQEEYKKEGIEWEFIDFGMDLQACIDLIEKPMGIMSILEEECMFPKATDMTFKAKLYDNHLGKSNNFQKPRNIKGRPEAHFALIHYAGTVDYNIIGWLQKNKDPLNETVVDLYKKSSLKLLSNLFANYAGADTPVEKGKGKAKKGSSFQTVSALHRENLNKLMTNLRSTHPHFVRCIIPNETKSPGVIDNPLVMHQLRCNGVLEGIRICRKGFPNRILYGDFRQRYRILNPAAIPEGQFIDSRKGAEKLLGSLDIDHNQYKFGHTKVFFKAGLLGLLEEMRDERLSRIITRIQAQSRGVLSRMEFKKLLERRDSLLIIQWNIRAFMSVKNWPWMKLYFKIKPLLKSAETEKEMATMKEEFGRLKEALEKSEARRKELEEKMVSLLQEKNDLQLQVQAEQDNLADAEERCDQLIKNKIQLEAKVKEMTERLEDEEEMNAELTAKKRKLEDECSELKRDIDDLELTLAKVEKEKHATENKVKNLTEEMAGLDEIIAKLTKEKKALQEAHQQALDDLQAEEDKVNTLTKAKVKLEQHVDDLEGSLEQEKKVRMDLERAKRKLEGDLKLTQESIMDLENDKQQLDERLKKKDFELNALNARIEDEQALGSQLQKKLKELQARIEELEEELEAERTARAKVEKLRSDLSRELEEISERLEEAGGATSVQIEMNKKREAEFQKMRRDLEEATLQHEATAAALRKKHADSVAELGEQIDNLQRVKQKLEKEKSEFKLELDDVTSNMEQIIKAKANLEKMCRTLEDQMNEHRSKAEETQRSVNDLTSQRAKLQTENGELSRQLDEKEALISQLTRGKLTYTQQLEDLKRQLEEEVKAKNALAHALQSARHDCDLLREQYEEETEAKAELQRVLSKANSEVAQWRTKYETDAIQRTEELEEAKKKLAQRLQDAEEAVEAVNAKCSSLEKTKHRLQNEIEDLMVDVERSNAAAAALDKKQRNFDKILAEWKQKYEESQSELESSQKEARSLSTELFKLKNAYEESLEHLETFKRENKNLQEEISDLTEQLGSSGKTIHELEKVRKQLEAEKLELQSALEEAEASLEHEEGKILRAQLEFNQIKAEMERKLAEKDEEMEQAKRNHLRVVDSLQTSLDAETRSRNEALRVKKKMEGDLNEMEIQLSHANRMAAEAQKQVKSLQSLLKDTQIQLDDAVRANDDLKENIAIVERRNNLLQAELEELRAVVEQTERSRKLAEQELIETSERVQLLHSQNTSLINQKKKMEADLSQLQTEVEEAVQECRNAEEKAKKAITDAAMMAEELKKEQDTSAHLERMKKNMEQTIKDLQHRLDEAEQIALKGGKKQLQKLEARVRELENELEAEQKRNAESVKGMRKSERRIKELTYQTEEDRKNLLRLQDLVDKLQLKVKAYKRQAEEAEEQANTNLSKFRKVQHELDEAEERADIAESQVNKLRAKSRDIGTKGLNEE

SMILES: CNc1ccccc1C(=O)O[C@H]1C[C@H](n2cnc3c(N)ncnc32)O[C@@H]1COP(=O)(O)OP(=O)(O)OP(=O)(O)O [mant.dATP]
- kcat (s^-1) / Mean: 0.0282 s⁻¹
